PMC3685217, “Activation of IP3 receptors requires an endogenous 1-8-14 calmodulin-binding motif” (Biochemical Journal, 2012)
Several values for one entry are separate records, joined by “and”; a condition that tells them apart may be missing. Identical values can stand only once.

Tests used:
[1] = molecular target: T1, NT (residues 1–604) of rat IP3R1 (Rattus norvegicus, UniProt P29994, DEL318-332); assay: [3H]IP3 equilibrium-competition binding to NT
T1 construct: The NT (residues 1–604) and IBC (residues 224–604) of rat IP3R1; His6 (N, cleaved yes); made in house; host or cells: Escherichia coli BL21(DE3)
T1 sequence (P29994 1-589 isoform P29994-2 limits assumed, stated change not applied): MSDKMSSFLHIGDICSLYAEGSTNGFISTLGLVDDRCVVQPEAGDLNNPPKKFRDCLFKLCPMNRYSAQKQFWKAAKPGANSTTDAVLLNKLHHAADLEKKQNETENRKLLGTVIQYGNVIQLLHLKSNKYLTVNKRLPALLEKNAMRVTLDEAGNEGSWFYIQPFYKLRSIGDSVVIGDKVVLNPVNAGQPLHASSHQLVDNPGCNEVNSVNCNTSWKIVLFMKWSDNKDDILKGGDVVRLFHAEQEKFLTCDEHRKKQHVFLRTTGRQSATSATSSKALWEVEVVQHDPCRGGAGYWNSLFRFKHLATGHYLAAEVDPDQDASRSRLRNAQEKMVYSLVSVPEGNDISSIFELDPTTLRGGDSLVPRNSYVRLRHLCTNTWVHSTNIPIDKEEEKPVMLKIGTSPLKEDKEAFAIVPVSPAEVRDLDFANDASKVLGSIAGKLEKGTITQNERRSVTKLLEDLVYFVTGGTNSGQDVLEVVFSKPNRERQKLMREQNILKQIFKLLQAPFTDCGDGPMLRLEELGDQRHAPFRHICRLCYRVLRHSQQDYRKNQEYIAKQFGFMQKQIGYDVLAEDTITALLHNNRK
Description: (§1) The NT (residues 1–604) and IBC (residues 224–604) of rat IP3R1 were amplified by PCR from the full-length receptor clone lacking the SI splice region (GenBank® accession number GQ233032.1) as described previously. The fragments were ligated into pTrcHis A (Invitrogen) to allow expression of N-terminally His6-tagged proteins. Mutagenesis of the 1-8-14 motif within the NT used the QuikChange® II XL site-directed mutagenesis kit (Stratagene) for single mutants (F53E, L60E, Y66E and K52E) and the QuikChange® multi-site-directed mutagenesis kit for the double mutant (F53E and Y66E). The primers used are listed in Supplementary Table S2 (at http://www.BiochemJ.org/bj/449/bj4490039add.htm). The same primers and conditions were used for mutagenesis of full-length IP3R using IP3R1 in the pENTR 1A vector. Full-length constructs were subcloned into pcDNA3.2/V5-DEST for expression in DT40 cells. The complete sequence of every mutant construct was verified by sequencing.
(§2) The pTrcHis constructs were used for expression of N-terminally His6-tagged proteins in Escherichia coli strain BL21(DE3) cells. Before use for [^3H]IP3 binding, proteins were cleaved from the His6 tags using biotinylated thrombin (Novagen) at the engineered thrombin-cleavage site. Complete cleavage was verified by Western blotting using an anti-His6 antibody. The proteins were used for [^3H]IP3 binding without further purification.
(§3) Equilibrium-competition binding assays were performed at 4°C for 5 min in CLM (500 μl) with a free Ca^2+ concentration of 220 nM and containing [^3H]IP3 (0.75–1.5 nM), bacterial lysate (10 μg of protein for IBC and 100 μg of protein for NT) or cerebellar membranes (50 μg of protein) and competing ligands. Non-specific binding was defined by addition of 10 μM IP3. Bound and free [^3H]IP3 were separated by centrifugation at 20000 g for 5 min, after addition of poly(ethylene glycol) (15% final concentration) and γ-globulin (0.75 mg) for soluble proteins. Results were analysed by fitting to a Hill equation (using GraphPad Prism) from which the IC50 (half-maximal inhibitory concentration) and thereby the Kd (equilibrium dissociation constant) were calculated.

[2] = molecular target: T2, IBC (residues 224–604) of rat IP3R1 (Rattus norvegicus, UniProt P29994, DEL318-332); assay: [3H]IP3 equilibrium-competition binding to IBC
T2 construct: IBC (residues 224–604) of rat IP3R1 were amplified by PCR; His6 (N, cleaved yes); made in house; host or cells: Escherichia coli BL21(DE3)
T2 sequence (P29994 224-589 isoform P29994-2 limits assumed, stated change not applied): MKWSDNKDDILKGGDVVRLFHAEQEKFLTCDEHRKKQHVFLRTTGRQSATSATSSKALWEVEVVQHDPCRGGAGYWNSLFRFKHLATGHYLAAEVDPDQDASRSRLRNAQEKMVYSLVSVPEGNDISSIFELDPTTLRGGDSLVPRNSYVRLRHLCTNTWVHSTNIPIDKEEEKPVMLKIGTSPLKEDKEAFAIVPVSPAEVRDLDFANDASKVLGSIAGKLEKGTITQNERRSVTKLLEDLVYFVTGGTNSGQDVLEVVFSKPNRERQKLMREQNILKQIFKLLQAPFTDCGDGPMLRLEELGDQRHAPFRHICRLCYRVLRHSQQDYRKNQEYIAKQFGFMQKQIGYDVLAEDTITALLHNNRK
Description: as §1, §2, §3

[3] = molecular target: T3, NT of rat IP3R1 with Y66E mutation (Rattus norvegicus, UniProt P29994, DEL318-332/Y66E); assay: [3H]IP3 equilibrium-competition binding to NT Y66E
T3 construct: The NT (residues 1–604) and IBC (residues 224–604) of rat IP3R1; His6 (N, cleaved yes); made in house; host or cells: Escherichia coli BL21(DE3)
T3 sequence (P29994 1-589 isoform P29994-2 Y66E limits assumed): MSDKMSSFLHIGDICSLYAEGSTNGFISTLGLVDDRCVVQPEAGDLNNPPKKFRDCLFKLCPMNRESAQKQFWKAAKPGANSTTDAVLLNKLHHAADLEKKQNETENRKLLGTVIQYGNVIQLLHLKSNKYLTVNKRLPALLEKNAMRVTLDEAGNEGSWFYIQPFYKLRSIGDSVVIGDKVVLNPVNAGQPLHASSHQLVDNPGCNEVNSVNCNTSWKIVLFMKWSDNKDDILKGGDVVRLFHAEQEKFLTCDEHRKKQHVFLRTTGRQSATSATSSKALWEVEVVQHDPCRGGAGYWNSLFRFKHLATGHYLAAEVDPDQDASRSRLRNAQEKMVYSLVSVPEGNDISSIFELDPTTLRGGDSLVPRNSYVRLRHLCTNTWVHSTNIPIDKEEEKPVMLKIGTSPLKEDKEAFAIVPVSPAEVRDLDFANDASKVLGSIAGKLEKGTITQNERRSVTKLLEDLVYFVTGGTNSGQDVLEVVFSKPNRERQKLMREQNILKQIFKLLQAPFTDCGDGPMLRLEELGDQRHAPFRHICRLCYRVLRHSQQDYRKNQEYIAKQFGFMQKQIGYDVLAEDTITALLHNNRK
Description: as §1, §2, §3

[4] = molecular target: T4, NT of rat IP3R1 with F53E mutation (Rattus norvegicus, UniProt P29994, DEL318-332/F53E); assay: [3H]IP3 equilibrium-competition binding to NT F53E
T4 construct: The NT (residues 1–604) and IBC (residues 224–604) of rat IP3R1; His6 (N, cleaved yes); made in house; host or cells: Escherichia coli BL21(DE3)
T4 sequence (P29994 1-589 isoform P29994-2 F53E limits assumed): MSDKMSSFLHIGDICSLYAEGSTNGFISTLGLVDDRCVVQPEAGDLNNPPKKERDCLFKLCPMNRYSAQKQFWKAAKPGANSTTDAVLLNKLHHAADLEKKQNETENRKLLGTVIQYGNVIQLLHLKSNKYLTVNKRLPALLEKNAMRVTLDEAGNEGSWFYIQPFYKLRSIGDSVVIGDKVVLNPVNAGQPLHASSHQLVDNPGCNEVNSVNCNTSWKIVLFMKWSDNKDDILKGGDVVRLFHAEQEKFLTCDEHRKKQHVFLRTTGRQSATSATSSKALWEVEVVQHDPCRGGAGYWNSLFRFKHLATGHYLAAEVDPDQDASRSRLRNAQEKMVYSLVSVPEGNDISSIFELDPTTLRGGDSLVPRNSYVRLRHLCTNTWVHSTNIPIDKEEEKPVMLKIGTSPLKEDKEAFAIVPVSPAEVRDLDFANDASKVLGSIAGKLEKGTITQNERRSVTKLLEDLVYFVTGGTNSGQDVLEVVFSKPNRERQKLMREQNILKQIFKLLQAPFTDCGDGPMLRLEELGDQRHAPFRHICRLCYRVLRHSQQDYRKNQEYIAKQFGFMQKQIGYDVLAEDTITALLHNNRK
Description: as §1, §2, §3

[5] = molecular target: T5, NT of rat IP3R1 with L60E mutation (Rattus norvegicus, UniProt P29994, DEL318-332/L60E); assay: [3H]IP3 equilibrium-competition binding to NT L60E
T5 construct: The NT (residues 1–604) and IBC (residues 224–604) of rat IP3R1; His6 (N, cleaved yes); made in house; host or cells: Escherichia coli BL21(DE3)
T5 sequence (P29994 1-589 isoform P29994-2 L60E limits assumed): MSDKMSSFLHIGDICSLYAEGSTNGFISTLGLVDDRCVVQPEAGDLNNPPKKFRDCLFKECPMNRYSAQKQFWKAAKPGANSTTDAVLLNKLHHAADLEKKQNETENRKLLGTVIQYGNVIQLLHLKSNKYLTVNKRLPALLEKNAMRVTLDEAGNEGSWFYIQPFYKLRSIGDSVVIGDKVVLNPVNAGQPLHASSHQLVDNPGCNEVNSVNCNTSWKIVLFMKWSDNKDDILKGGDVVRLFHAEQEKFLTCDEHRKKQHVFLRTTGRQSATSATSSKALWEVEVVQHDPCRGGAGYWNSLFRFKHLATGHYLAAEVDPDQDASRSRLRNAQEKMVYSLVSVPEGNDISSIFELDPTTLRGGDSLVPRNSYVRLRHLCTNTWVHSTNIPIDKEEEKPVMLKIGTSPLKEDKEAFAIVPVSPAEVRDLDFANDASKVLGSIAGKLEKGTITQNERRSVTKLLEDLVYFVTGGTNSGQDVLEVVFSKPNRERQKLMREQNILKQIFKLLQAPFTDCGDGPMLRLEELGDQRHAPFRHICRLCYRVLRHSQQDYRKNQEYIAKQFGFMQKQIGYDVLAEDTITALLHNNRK
Description: as §1, §2, §3

[6] = molecular target: T6, full-length IP3R (wild-type IP3R1) (Rattus norvegicus, UniProt P29994); assay: [3H]IP3 binding to full-length IP3R in permeabilized DT40 cells; settings: 100 μM peptide, [3H]IP3 1.5 nM, not increased for L60E or FY mutants
T6 construct: expressed in transfected cells; host or cells: DT40 cells (chicken B cells, all endogenous IP3R genes disrupted) stably expressing rat IP3R1

| Molecule | Affinity relative to NT (heparin), Kd^NT/Kd^mutant ([1]; fragment NT) | Kd, ng/ml (heparin) ([1]; fragment NT) | pKd, /g/ml heparin ([1]; fragment NT, mean±S.E.M., n≥3) | Kd, ng/ml (heparin) ([2]; fragment IBC) | Affinity relative to NT (heparin), Kd^NT/Kd^mutant ([2]; fragment IBC (SD removed)) | pKd, /g/ml heparin ([2]; fragment IBC, mean±S.E.M., n≥3) | Affinity relative to NT (heparin), Kd^NT/Kd^mutant ([3]; fragment NT Y66E) | Kd, ng/ml (heparin) ([3]; fragment NT Y66E) | pKd, /g/ml heparin ([3]; fragment NT Y66E, mean±S.E.M., n≥3) | Affinity relative to NT (heparin), Kd^NT/Kd^mutant ([4]; fragment NT F53E) | Kd, ng/ml (heparin) ([4]; fragment NT F53E) | pKd, /g/ml heparin ([4]; fragment NT F53E, mean±S.E.M., n≥3) | Affinity relative to NT (heparin), Kd^NT/Kd^mutant ([5]; fragment NT L60E) | Kd, ng/ml (heparin) ([5]; fragment NT L60E) | pKd, /g/ml heparin ([5]; fragment NT L60E, mean±S.E.M., n≥3) | effect on specific [3H]IP3 binding to the NT ([1]; 100 μM peptide, [3H]IP3 1.5 nM) | effect on specific [3H]IP3 binding to NT Y66E ([3]; 100 μM peptide, [3H]IP3 1.5 nM) | effect on specific [3H]IP3 binding to NT F53E ([4]; 100 μM peptide, [3H]IP3 1.5 nM) | effect on IP3 binding to full-length wild-type IP3R [6] | effect on specific [3H]IP3 binding to NT L60E ([5]; 100 μM peptide, [3H]IP3 1.5 nM) |
| --- | --- | --- | --- | --- | --- | --- | --- | --- | --- | --- | --- | --- | --- | --- | --- | --- | --- | --- | --- | --- |
| heparin | 1 fold | 239 ng/mL | 6.62±0.06 /g/ml | 117 ng/mL | 2 fold and 2.0 fold | 6.93±0.04 /g/ml | 1.4 fold | 171 ng/mL | 6.77±0.03 /g/ml | 2 fold | 120 ng/mL | 6.92±0.06 /g/ml | 1.2 fold | 200 ng/mL | 6.70±0.04 /g/ml |  |  |  |  |  |
| CC[C@H](C)[C@H](NC(=O)[C@H](C)NC(=O)[C@H](CCCNC(=N)N)NC(=O)[C@@H](NC(=O)[C@H](C)NC(=O)[C@H](Cc1c[nH]cn1)NC(=O)CNC(=O)[C@@H](NC(=O)[C@H](CCCCN)NC(=O)[C@H](CCC(N)=O)NC(=O)[C@H](Cc1c[nH]c2ccccc12)NC(=O)[C@H](CCCCN)NC(=O)[C@H](CCCNC(=N)N)NC(=O)[C@H](CCCNC(=N)N)NC(C)=O)[C@@H](C)O)C(C)C)C(=O)NCC(=O)N[C@@H](CCCNC(=N)N)C(=O)N[C@@H](CC(C)C)C(N)=O [MLCK peptide, Ac-RRKWQKTGHAVRAIGRL-NH2] |  |  |  |  |  |  |  |  |  |  |  |  |  |  |  | increased | neither peptide had any effect | neither peptide had any effect | increased | neither peptide had any effect |
